Laboratory results taken from ChEMBL document CHEMBL2331111, “Antioxidant and anti-inflammatory meroterpenoids from the brown alga Cystoseira usneoides” (J Nat Prod, 2013).
Activity calls are given as the source filed them. The rule behind the calls is not given here.

system: THP-1; test: Antiinflammatory activity in PMA-treated human THP1 cells assessed as inhibition of LPS-induced TNFalpha production at 2 uM incubated for 24 hrs prior to LPS challenge measured after 24 hrs by ELISA; type: functional, cell-based; details: not given

Structure (SMILES) | inhibition
COc1c(C)cc(O)cc1C/C=C(\C)CC(=O)/C=C(/C)CCCC(C)C(=O)/C=C/C(C)(C)O (centres undefined) | inactive

system: THP-1; test: Antiinflammatory activity in PMA-treated human THP1 cells assessed as inhibition of LPS-induced TNFalpha production at 6 uM incubated for 24 hrs prior to LPS challenge measured after 24 hrs by ELISA relative to control; type: functional; details: not given

Structure (SMILES) | inhibition at 6 µM [%]
COc1c(C)cc(O)cc1/C=C/C(C)(O)CC(=O)/C=C(\C)CCCC(C)C(=O)/C=C/C(C)(C)O (centres undefined) [CYSTODIONE B] | 11

system: THP-1; test: Antiinflammatory activity in PMA-treated human THP1 cells assessed as inhibition of LPS-induced TNFalpha production at 8 uM incubated for 24 hrs prior to LPS challenge measured after 24 hrs by ELISA relative to control; type: functional; details: not given

Structure (SMILES) | inhibition at 8 µM [%]
COc1c(C)cc(O)cc1/C=C/C(C)(O)CC(=O)/C=C(/C)CCCC(C)C(=O)/C=C/C(C)(C)O (centres undefined) [CYSTODIONE A] | 33

system: THP-1; test: Antiinflammatory activity in PMA-treated human THP1 cells assessed as inhibition of LPS-induced TNFalpha production at 10 uM incubated for 24 hrs prior to LPS challenge measured after 24 hrs by ELISA relative to control; type: functional; details: not given

Structure (SMILES) | inhibition at 10 µM [%]
COc1c(C)cc(O)cc1C/C=C(\C)CC(=O)/C=C(\C)CCCC(C)(O)C(=O)/C=C/C(C)(C)O (centres undefined) | 64
COc1c(C)cc(O)cc1/C=C/C(C)(O)CC(=O)/C=C(\C)CCCC(C)=O (centres undefined) [CYSTODIONE D] | 11
COc1c(C)cc(O)cc1C/C=C(\C)CC(=O)/C=C(/C)CCCC(C)(O)C(=O)/C=C/C(C)(C)O (centres undefined) [USNEOIDONE Z] | 73

system: THP-1; test: Cytotoxicity against PMA-treated human THP1 cells assessed as cell viability at 8 to 10 uM after 48 hrs by SRB assay; type: cell-based; details: thp-1, 48 h

Structure (SMILES) | Activity
COc1c(C)cc(O)cc1C/C=C(\C)CC(=O)/C=C(/C)CCCC(C)C(=O)/C=C/C(C)(C)O (centres undefined) | Non-toxic
COc1c(C)cc(O)cc1C/C=C(\C)CC(=O)/C=C(\C)CCCC(C)(O)C(=O)/C=C/C(C)(C)O (centres undefined) | Non-toxic
COc1c(C)cc(O)cc1/C=C/C(C)(O)CC(=O)/C=C(/C)CCCC(C)C(=O)/C=C/C(C)(C)O (centres undefined) [CYSTODIONE A] | Non-toxic
COc1c(C)cc(O)cc1/C=C/C(C)(O)CC(=O)/C=C(\C)CCCC(C)C(=O)/C=C/C(C)(C)O (centres undefined) [CYSTODIONE B] | Non-toxic
COc1c(C)cc(O)cc1/C=C/C(C)(O)CC(=O)/C=C(\C)CCCC(C)=O (centres undefined) [CYSTODIONE D] | Non-toxic
COc1c(C)cc(O)cc1C/C=C(\C)CC(=O)/C=C(/C)CCCC(C)(O)C(=O)/C=C/C(C)(C)O (centres undefined) [USNEOIDONE Z] | Non-toxic

system: not listed separately; test: Ratio of trolox EC50 to compound EC50 for ABTS free radical scavenging activity; details: not given

Structure (SMILES) | Ratio EC50
COc1c(C)cc(O)cc1C/C=C(\C)CC(=O)/C=C(/C)CCCC(C)C(=O)/C=C/C(C)(C)O (centres undefined) | 0.98
COc1c(C)cc(O)cc1C/C=C(\C)CC(=O)/C=C(\C)CCCC(C)C(=O)/C=C/C(C)(C)O (centres undefined) | 1.06
COc1c(C)cc(O)cc1C/C=C(\C)CC(=O)/C=C(\C)CCCC(C)(O)C(=O)/C=C/C(C)(C)O (centres undefined) | 0.78
COc1c(C)cc(O)cc1/C=C/C(C)(O)CC(=O)/C=C(/C)CCCC(C)C(=O)/C=C/C(C)(C)O (centres undefined) [CYSTODIONE A] | 1.15
COc1c(C)cc(O)cc1/C=C/C(C)(O)CC(=O)/C=C(\C)CCCC(C)C(=O)/C=C/C(C)(C)O (centres undefined) [CYSTODIONE B] | 1.06
COc1c(C)cc(O)cc1/C=C/C(C)(O)CC(=O)/C=C(/C)CCCC(C)=O (centres undefined) [CYSTODIONE C] | 0.46
COc1c(C)cc(O)cc1/C=C/C(C)(O)CC(=O)/C=C(\C)CCCC(C)=O (centres undefined) [CYSTODIONE D] | 0.58
COc1c(C)cc(O)cc1C/C=C(\C)CC(=O)/C=C(/C)CCCC(C)=O [CYSTOMEXICONE A] | 0.5
COc1c(C)cc(O)cc1C/C=C(\C)CC(=O)/C=C(\C)CCCC(C)=O [CYSTOMEXICONE B] | 0.78
Cc1c(C)c2c(c(C)c1O)CCC(C)(C(=O)O)O2 (centres undefined) [TROLOX] | 1
COc1c(C)cc(O)cc1C/C=C(\C)CC(=O)/C=C(/C)CCCC(C)(O)C(=O)/C=C/C(C)(C)O (centres undefined) [USNEOIDONE Z] | 0.6

system: not listed separately; test: Antioxidant activity assessed as ABTS free radical scavenging activity measured up to 6 mins by spectrophotometric analysis; type: functional; details: not given

EC50 [µM] | Structure (SMILES)
26.3 | COc1c(C)cc(O)cc1C/C=C(\C)CC(=O)/C=C(/C)CCCC(C)C(=O)/C=C/C(C)(C)O (centres undefined)
24.5 | COc1c(C)cc(O)cc1C/C=C(\C)CC(=O)/C=C(\C)CCCC(C)C(=O)/C=C/C(C)(C)O (centres undefined)
33.1 | COc1c(C)cc(O)cc1C/C=C(\C)CC(=O)/C=C(\C)CCCC(C)(O)C(=O)/C=C/C(C)(C)O (centres undefined)
22.5 | COc1c(C)cc(O)cc1/C=C/C(C)(O)CC(=O)/C=C(/C)CCCC(C)C(=O)/C=C/C(C)(C)O (centres undefined) [CYSTODIONE A]
24.4 | COc1c(C)cc(O)cc1/C=C/C(C)(O)CC(=O)/C=C(\C)CCCC(C)C(=O)/C=C/C(C)(C)O (centres undefined) [CYSTODIONE B]
55.9 | COc1c(C)cc(O)cc1/C=C/C(C)(O)CC(=O)/C=C(/C)CCCC(C)=O (centres undefined) [CYSTODIONE C]
44.7 | COc1c(C)cc(O)cc1/C=C/C(C)(O)CC(=O)/C=C(\C)CCCC(C)=O (centres undefined) [CYSTODIONE D]
51.6 | COc1c(C)cc(O)cc1C/C=C(\C)CC(=O)/C=C(/C)CCCC(C)=O [CYSTOMEXICONE A]
33.3 | COc1c(C)cc(O)cc1C/C=C(\C)CC(=O)/C=C(\C)CCCC(C)=O [CYSTOMEXICONE B]
25.9 | Cc1c(C)c2c(c(C)c1O)CCC(C)(C(=O)O)O2 (centres undefined) [TROLOX]
43.1 | COc1c(C)cc(O)cc1C/C=C(\C)CC(=O)/C=C(/C)CCCC(C)(O)C(=O)/C=C/C(C)(C)O (centres undefined) [USNEOIDONE Z]
